In experiment [1] the target is T1, Alexa fluor-647 labeled human PD-L1-Ig binding to Jurkat cell line over-expressing human PD-1 (Homo sapiens, UniProt Q15116).
T1 construct: expressed in transfected cells; host or cells: Jurkat
Kind of experiment: Jurkat-PD-1 Cell Binding High-Content Screening Assay (CBA): Method 3 (Alexa fluor-647 labeled PD-L1-Ig). To be noted: Jurkat-PD-1 cells, Alexa fluor-647 labeled PD-L1-Ig 177 nM. A digest of the protocol:
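Jurkat cells over-expressing human PD-1 in RPMI/10% FCS were preincubated 2 h at 37 °C with compound, then exposed 1 h to Alexa fluor-647 labeled human PD-L1-Ig (177 nM final). Cells fixed in 4% paraformaldehyde with Hoechst 33342 and binding quantified by high-content imaging.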

Experiment [2] deals with T2, PD1-PDL1 protein-protein binding interaction [hPD1(25-167)-hIgG, hPD-L1 (19-239)-6xHis] (Homo sapiens, UniProt Q15116).
T2 construct: hPD1(25-167)-hIgG, BMS
As to the kind of experiment: HTRF Assay (TR-FRET). The conditions noted are these: 5 nM hPD1-hIgG, 5 nM hPD-L1-6xHis, 24 hours at 25° C., head μM. The method, then:
A time-resolved fluorescence resonance energy transfer (TR-FRET) assay was employed to measure the inhibition of the PD1-PDL1 protein-protein binding interaction. The reaction buffer was prepared by mixing the HiBlock buffer and LANCE detection buffer (PerkinElmer, TRF1011F and CR97-100) at a 1:1 ratio. Assay reactions contained 5 nM human programmed cell death 1 [hPD1(25-167)-hIgG, BMS], 5 nM human programmed cell death ligand 1 [hPD-L1 (19-239)-6×His, BMS], in the presence of 1 nM LANCE Eu-W1024 Anti-Human IgG (Eu-anti hIgG, PerkinElmer, AD0074) and 20 nM SureLight Allophycocyanin-anti-6×His antibody (APC-anti-6×His, PerkinElmer, AD0059H). Test compounds were evaluated in a 10-point dose-response format with serial three-fold dilutions starting from a 2 uM top concentration. Reactions were carried out in a total volume of 10 uL in 384-well microtiter plates (Proxiplate white, PerkinElmer, 6008289). Plates were sealed and incubated for 24 hours at 25° C. After 24 hours, the TR-FRET signal was measured using a PerkinElmer EnVision multimode plate reader and the resulting ratiometric data set (signal at 665 nm/615 nm, multiplied by a factor of 10,000) was recorded. The concentration giving half-maximal inhibition (the IC50) was obtained by fitting the data to a four-parameter logistic equation using Graphpad Prism or Dotmatics.
A general note: TR-FRET usually uses a lanthanide donor and a delayed reading to cut background.

Where [3] appears, read: head μM, read-out: CBA Method 3 μM.

Structures are written as SMILES. Where two headings read alike, the source gives them in different places. Numbered stars: 1 amine (or outer) side, 2 acyl side, 3 side chain; on linkers, the order of the positions; unused ones are H or OH. Bridge positions count the residues as written; N and C are the ends. Square brackets hold non-standard residues; d marks the D form. Peptide text beside a SMILES is read from it. * marks the point of attachment. Bip(4'-NHAc) = CC(=O)Nc1ccc(-c2ccc(C[C@H](N)C(=O)O)cc2)cc1; Phe(3-CF3) = N[C@@H](Cc1cccc(C(F)(F)F)c1)C(=O)O; Ala(morpholin-4-yl) = N[C@@H](CN1CCOCC1)C(=O)O; Phe(4-COOH) = N[C@@H](Cc1ccc(C(=O)O)cc1)C(=O)O; Bip = N[C@@H](Cc1ccc(-c2ccccc2)cc1)C(=O)O; Phe(4-Cl) = N[C@@H](Cc1ccc(Cl)cc1)C(=O)O; Abu(3R-NH2) = C[C@@H](N)[C@H](N)C(=O)O; Phe(3-Me) = Cc1cccc(C[C@H](N)C(=O)O)c1; Glutaryl = O=C(CCCC(=O)[*:2])[*:1]; hPhe = N[C@@H](CCc1ccccc1)C(=O)O; Cha = N[C@@H](CC1CCCCC1)C(=O)O; Carboxymethyl = O=C(O)C*; NMeA = CN[C@@H](C)C(=O)O; Orn = NCCC[C@H](N)C(=O)O; Dab = NCC[C@H](N)C(=O)O; Dap = NC[C@H](N)C(=O)O

T1 sequence (Q15116 25-288): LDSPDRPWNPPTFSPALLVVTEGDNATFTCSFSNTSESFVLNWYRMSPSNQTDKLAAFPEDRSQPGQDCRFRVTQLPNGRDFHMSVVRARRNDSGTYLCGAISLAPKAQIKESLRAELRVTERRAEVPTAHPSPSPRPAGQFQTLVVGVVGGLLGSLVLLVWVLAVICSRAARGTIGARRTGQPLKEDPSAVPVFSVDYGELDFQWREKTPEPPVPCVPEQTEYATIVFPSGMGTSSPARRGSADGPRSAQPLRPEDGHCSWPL
T2 sequence (Q15116 25-167): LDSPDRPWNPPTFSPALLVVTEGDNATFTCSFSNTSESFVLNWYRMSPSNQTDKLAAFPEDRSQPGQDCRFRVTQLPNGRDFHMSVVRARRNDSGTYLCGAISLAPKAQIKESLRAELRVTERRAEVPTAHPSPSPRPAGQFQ

Consider `Cc1cccc(C[C@@H]2NC(=O)[C@H](CC(=O)O)NC(=O)[C@H](Cc3ccc(OCC(=O)O)cc3)NC(=O)[C@H](CN3CCOCC3)NC(=O)CSC[C@@H](C(=O)N[C@@H](CCN)C(N)=O)NC(=O)[C@H](CCC(N)=O)NC(=O)[C@H](C(C)C)NC(=O)[C@H](CC3CCCCC3)NC(=O)[C@H](CCN)NC(=O)[C@@H](CC(C)C)NC(=O)[C@H](C)N(C)C(=O)[C@H](CCC(N)=O)NC(=O)[C@H](Cc3ccc(-c4ccccc4)cc3)NC(=O)[C@H](CCc3ccccc3)NC2=O)c1` [Example 5221] ({CH2CO}-[Ala(morpholin-4-yl)]Y(Carboxymethyl)D[Phe(3-Me)][hPhe][Bip]Q[NMeA][dL][Dab][Cha]VQC[Dab]-NH2; thioether N-14), for which the IC50 in experiment [1] (nM, read-out: CBA Method 3) turned out to be 3 nM; in experiment [2] it was 0.01 µM.
For `Cc1cccc(C[C@@H]2NC(=O)[C@H](CC(=O)O)NC(=O)[C@H](Cc3ccc(OCC(=O)O)cc3)NC(=O)[C@H](Cc3ccc(Cl)cc3)NC(=O)CSC[C@@H](C(=O)N[C@@H](CCN)C(N)=O)NC(=O)[C@H](CCCN)NC(=O)[C@H](C(C)C)NC(=O)[C@H](CC3CCCCC3)NC(=O)[C@H](CCN)NC(=O)[C@@H](CC(C)C)NC(=O)[C@H](C)N(C)C(=O)[C@H](CCC(N)=O)NC(=O)[C@H](Cc3ccc(-c4ccccc4)cc3)NC(=O)[C@H](Cc3ccc(C(=O)O)cc3)NC2=O)c1` [Example 5288] ({CH2CO}-[Phe(4-Cl)]Y(Carboxymethyl)D[Phe(3-Me)][Phe(4-COOH)][Bip]Q[NMeA][dL][Dab][Cha]V[Orn]C[Dab]-NH2; thioether N-14), in that order: 1 nM and 0.08 µM.
Turning to `CC(C)C[C@H]1NC(=O)[C@H](C)N(C)C(=O)[C@H](Cc2ccc(C(=O)O)cc2)NC(=O)[C@H](Cc2ccc(-c3ccccc3)cc2)NC(=O)[C@H](Cc2ccc(C(=O)O)cc2)NC(=O)[C@H](Cc2cccc(C(F)(F)F)c2)NC(=O)[C@H](CC(=O)O)NC(=O)[C@H](Cc2ccc(C(=O)O)cc2)NC(=O)[C@H](CC2CCCCC2)NC(=O)CSC[C@@H](C(=O)N[C@@H](CCN)C(N)=O)NC(=O)[C@H](CNC(=O)CCCC(=O)O)NC(=O)[C@H](C(C)C)NC(=O)[C@H](CC2CCCCC2)NC(=O)[C@H](CCN)NC1=O` [Example 5229] ({CH2CO}-[Cha][Phe(4-COOH)]D[Phe(3-CF3)][Phe(4-COOH)][Bip][Phe(4-COOH)][NMeA][dL][Dab][Cha]V[Dap](Glutaryl)C[Dab]-NH2; thioether N-14), the IC50 in experiment [1] (nM, read-out: CBA Method 3) is 3.8 nM; in experiment [2], 0.04 µM.
For `Cc1cccc(C[C@@H]2NC(=O)[C@H](CC(=O)O)NC(=O)[C@H](Cc3ccc(OCC(=O)O)cc3)NC(=O)[C@H](CN3CCOCC3)NC(=O)CSC[C@@H](C(=O)N[C@@H](CCN)C(N)=O)NC(=O)[C@H](CCC(=O)O)NC(=O)[C@H](C(C)C)NC(=O)[C@H](CC3CCCCC3)NC(=O)[C@H](CCN)NC(=O)[C@@H](CC(C)C)NC(=O)[C@H](C)N(C)C(=O)[C@H](CCC(N)=O)NC(=O)[C@H](Cc3ccc(-c4ccccc4)cc3)NC(=O)[C@H](CCc3ccccc3)NC2=O)c1` [Example 5212] ({CH2CO}-[Ala(morpholin-4-yl)]Y(Carboxymethyl)D[Phe(3-Me)][hPhe][Bip]Q[NMeA][dL][Dab][Cha]VEC[Dab]-NH2; thioether N-14), the IC50 in experiment [1] (nM, read-out: CBA Method 3) was 3.9 nM; in experiment [2], 0.02 µM.
On to `CC(C)C[C@H]1NC(=O)[C@H](C)N(C)C(=O)[C@H](CCC(N)=O)NC(=O)[C@H](Cc2ccc(-c3ccccc3)cc2)NC(=O)[C@H](CCc2ccccc2)NC(=O)[C@H](Cc2cccc(C(F)(F)F)c2)NC(=O)[C@H](CC(=O)O)NC(=O)[C@H](Cc2ccc(O)cc2)NC(=O)[C@H](CN2CCOCC2)NC(=O)CSC[C@@H](C(=O)N[C@@H](CCN)C(N)=O)NC(=O)[C@H](CCCN)NC(=O)[C@H](C(C)C)NC(=O)[C@H](CC2CCCCC2)NC(=O)[C@H](CCN)NC1=O` [Example 5235] ({CH2CO}-[Ala(morpholin-4-yl)]YD[Phe(3-CF3)][hPhe][Bip]Q[NMeA][dL][Dab][Cha]V[Orn]C[Dab]-NH2; thioether N-14), for which the IC50 in experiment [1] (nM, read-out: CBA Method 3) amounted to 3.6 nM; in experiment [2] it was 0.03 µM.
In the case of `CC(=O)Nc1ccc(-c2ccc(C[C@@H]3NC(=O)CSC[C@@H](C(=O)N[C@@H](CCN)C(N)=O)NC(=O)[C@H](CCCN)NC(=O)[C@H](C(C)C)NC(=O)[C@H](CC4CCCCC4)NC(=O)[C@H](CCN)NC(=O)[C@@H](CC(C)C)NC(=O)[C@H](C)N(C)C(=O)[C@H](CCC(N)=O)NC(=O)[C@H](Cc4ccc(-c5ccccc5)cc4)NC(=O)[C@H](Cc4ccc(C(=O)O)cc4)NC(=O)[C@H](Cc4cccc(C)c4)NC(=O)[C@H](CC(=O)O)NC(=O)[C@H](Cc4ccc(OCC(=O)O)cc4)NC3=O)cc2)cc1` [Example 5173] ({CH2CO}-[Bip(4'-NHAc)]Y(Carboxymethyl)D[Phe(3-Me)][Phe(4-COOH)][Bip]Q[NMeA][dL][Dab][Cha]V[Orn]C[Dab]-NH2; thioether N-14), the figures for the IC50 in experiment [1] (setting [3]) and in experiment [2] were 20 nM and 0.07 µM, respectively.
For the compound `CC(C)C[C@H]1NC(=O)[C@H](C)N(C)C(=O)[C@H](CCC(N)=O)NC(=O)[C@H](Cc2ccc(-c3ccccc3)cc2)NC(=O)[C@H](Cc2ccc(OCC(=O)O)cc2)NC(=O)[C@H](Cc2cccc(C(F)(F)F)c2)NC(=O)[C@H](CC(=O)O)NC(=O)[C@H](Cc2ccc(O)cc2)NC(=O)[C@H]([C@@H](C)N)NC(=O)CSC[C@@H](C(=O)N[C@@H](CCN)C(N)=O)NC(=O)[C@H](CCCN)NC(=O)[C@H](C(C)C)NC(=O)[C@H](CC2CCCCC2)NC(=O)[C@H](CCN)NC1=O` [Example 5239] ({CH2CO}-[Abu(3R-NH2)]YD[Phe(3-CF3)]Y(Carboxymethyl)[Bip]Q[NMeA][dL][Dab][Cha]V[Orn]C[Dab]-NH2; thioether N-14), the IC50 turned out to be 20 nM in experiment [1] (setting [3]) and 0.02 µM in experiment [2].
`CC(C)C[C@H]1NC(=O)[C@H](C)N(C)C(=O)[C@H](CCC(N)=O)NC(=O)[C@H](Cc2ccc(-c3ccccc3)cc2)NC(=O)[C@H](CCc2ccccc2)NC(=O)[C@H](Cc2cccc(C(F)(F)F)c2)NC(=O)[C@H](CC(=O)O)NC(=O)[C@H](Cc2ccc(OCC(=O)O)cc2)NC(=O)[C@H](CN2CCOCC2)NC(=O)CSC[C@@H](C(=O)N[C@@H](CCN)C(N)=O)NC(=O)[C@H](CCC(=O)O)NC(=O)[C@H](C(C)C)NC(=O)[C@H](CC2CCCCC2)NC(=O)[C@H](CCN)NC1=O` [Example 5211] ({CH2CO}-[Ala(morpholin-4-yl)]Y(Carboxymethyl)D[Phe(3-CF3)][hPhe][Bip]Q[NMeA][dL][Dab][Cha]VEC[Dab]-NH2; thioether N-14): the IC50 in experiment [1] (setting [3]) turned out to be 10 nM; in experiment [2], 0.04 µM.
Turning to `CC(C)C[C@H]1NC(=O)[C@H](C)N(C)C(=O)[C@H](CCC(N)=O)NC(=O)[C@H](Cc2ccc(-c3ccccc3)cc2)NC(=O)[C@H](CCc2ccccc2)NC(=O)[C@H](Cc2cccc(C(F)(F)F)c2)NC(=O)[C@H](CC(=O)O)NC(=O)[C@H](Cc2ccc(O)cc2)NC(=O)[C@H]([C@@H](C)N)NC(=O)CSC[C@@H](C(=O)N[C@@H](CCN)C(N)=O)NC(=O)[C@H](CCCN)NC(=O)[C@H](C(C)C)NC(=O)[C@H](CC2CCCCC2)NC(=O)[C@H](CCN)NC1=O` [Example 5236] ({CH2CO}-[Abu(3R-NH2)]YD[Phe(3-CF3)][hPhe][Bip]Q[NMeA][dL][Dab][Cha]V[Orn]C[Dab]-NH2; thioether N-14), the IC50 in experiment [1] (nM, read-out: CBA Method 3) turned out to be 1.1 nM; in experiment [2] it was 0.1 µM.

(Values after patent publication US20240409585A1, “MACROCYCLIC IMMUNOMODULATORS” (priority 2021, published 2024).)
